# From patent US8008074B2, “Compositions and methods for improving bone mass through modulation of receptors of PTH and fragments thereof” (The UAB Research Foundation, priority 2006, dated 2011)
# Columns and labels:
# [1] = tested on: Wnt responsive luciferase reporter (TCF4-Luc); test: TCF4-Luc luciferase reporter assay in UMR 106 cells; assay type: cell-based; settings: for TCF luciferase activity: 5×10^−7 M of indicated PTH ligands for 12 hours; for activation of TCF4-Luc reporter: 10^−7M PTH (1-84), 12 hours
# [2] = tested on: LRP6/Axin binding; test: Axin-LRP6 binding immunoprecipitation assay; assay type: cell-based; settings: HEK 293 cells cotransfected with LRP6, Axin and GSK3β, ligand for 1 hour
# [3] = tested on: Axin; test: Axin protein levels; assay type: cell-based; settings: cells overexpressing LRP6
# Source text: Binding of Axin to phosphorylated LRP6 leads to rapid degradation. Then inhibition of Axin/LRP6 binding should […] degradation of Axin. Indeed, Axin degradation is reduced by both inhibitors (data not shown). […] PKA and PKC also were examined to determine whether they regulate PTH-induced PTH1R/LRP6 complex formation. […] Apparently, the receptor complex formation is independent of activation of PKA and PKC. Instead, it seems that activation of G protein-mediated PKA and PKC signaling is in parallel with the recruitment of LRP5/6 in PTH signaling. PKA and PKC activity is required for LRP5/6 phosphorylation and Axin/LRP6 binding.
# Wnts induce binding of Axin to phosphorylated LRP6, and the membrane-bound Axin undergoes rapid protein dephosphorylation and degradation, which eventually leads to β-catenin stabilization Willert et al., 1999; Yamamoto et al., 1999).
# [4] = tested on: β-catenin in osteoblasts; test: β-catenin immunostaining of femur and tibia after single PTH injection in rats; assay type: in vivo, rat
# Source text: (§1) Immunohistochemical staining of representative sections with antibody against β-catenin at 10× objective and 40× objective counterstained with hematoxylin from either primary spongliosa subjacent to the epiphyseal growth plates or Spongiosa subjacent to diaphyseal hematopoietic bone marrow of different time points after PTH single injection in rats. […] Each value is the mean±SEM of determinations in three independent slides of each animal and three animals of each group. Panels B and C show graphs of the expression of MPK1 mRNA and the ratio of RANKL/OPG as quantified by real-time PCR in cavaria tissue from the same animals. Panel D—Immunohistochemical β-catenin staining of representative sections were counterstained with hematoxylin from metaphyseal area of distal femurs of mice at six weeks of age. (i) vehicle control daily injection for 28 days; (ii) hPTH (1-34) 100 ng/g. b.w daily injection for 28 days; (iii) vehicle control continuous infusion with an osmotic pump; and (iv) hPTH (1-34) continuous infusion at 500 ng/h with an osmotic pump. Panel D is a graph showing the numbers of β-catenin-positive osteoblasts as a percent of total osteoblasts per field that were determined. Each value is the mean±SEM of determinations in three independent slides of each animal and three animals of each group.
# β-Catenin, activated by either Wnt or TGF signaling, stimulates proliferation of osteoprogenitors and bone formation. […] Therefore, the dynamics of β-catenin levels were determined at various time points after a single dose injection of PTH (1-34) in seven-month-old rats. Sections of femur and tibia were immunostained for HE, trichrome, and β-catenin. The first signs of β-catenin expression in osteoblasts appeared at 2 hours after PTH injection, reached a peak at 8 hours, and decreased at 24 hours. […] Specifically, 99.76% of osteoblasts at primary spongliosa subjacent to the epiphyseal growth plates were β-catenin positive, and 89.91% at spongiosa subjacent to diaphyseal hematopoietic bone marrow were β-catenin positive (FIG. 7A).
# To further examine whether LRP5/6 mediates PTH-elevated β-catenin levels in vivo, trabecular bone sections were immunostained with the antibody against phosphorylated PPPSP motif. Formalin-fixed tissue sections of 5 μm thickness were deparaffinized in xylene and rehydrated in graded alcohols. Antigen retrieval was achieved by incubating tissue sections in boiling 10 mmol/L citrate buffer (pH 6.0) for 5 minutes in a microwave oven. All sections were then incubated with hydrogen peroxide for 5 minutes. Subsequently, sections were incubated with the primary antibodies against β-catenin or LRP6 1490 for 1 hour at room temperature. After rinsing the primary antibody in T-PBS, antibody detection was accomplished using the Super Sensitive biotin-streptavidin horseradish peroxidase detection kit (Biogenex, San Ramon, Calif.). The diaminobenzidine tetrachloride Super Sensitive substrate kit (Biogenex, San Ramon, Calif.) was used to visualize the antibody-antigen complex. The sections were then counterstained with hematoxylin. Appropriate negative controls, consisting of tissue sections of each case processed without the addition of primary antibody, were prepared along with positive multitissue control sections. Only those cases with greater than 10% immunohistochemical stains were considered as positive. Assessment of the immunohistochemical staining was performed independently by two pathologists. […]
# [5] = Bone formation in mice, daily injection or continuous infusion for 28 days; assay type: in vivo, mouse
# Source text: as §1
# (§2) The role of β-catenin in PTH-induced bone formation was then examined. PTH stimulates bone formation when injected daily, i.e. intermittent injection, but causes severe bone loss when infusion continuously. Mice were injected either daily or continuously by infusion with an osmotic pump for 28 days. […] Similar results were obtained in double labeling.
# [6] = tested on: β-catenin in osteoblasts; test: β-catenin immunostaining of trabecular bone in mice, 28 days PTH; assay type: in vivo, mouse; settings: for percentage of β-catenin positive osteoblasts: 28 days
# Source text: as §1, §2
# [7] = tested on: TGF-β-induced transcription activity; test: Smad binding response luciferase reporter (SBE-luc) in 293 cells; assay type: cell-based; settings: TGF-β 2 ng/ml, 50 nM
# Description: A Smad binding response luciferase reporter (SBE-luc) was transfected into 293 cells. TGF-β (2 ng/ml) was added in combination with different doses of PTH (1-34) or cPTH (39-84). Twenty-four hours after transfection, the cells were lysed and the luciferase signal was detected. Luciferase values shown in the figures are representative of transfection experiments performed in triplicate in at least three independent experiments. The relative increased fold of the luciferase activity stimulated by TGF-β in each cell line was calculated.
# A Smad binding response luciferase reporter (SBE-luc) was introduced into the multi-cloning site of pcDNA3 (Invitrogen), and the resulting vector was transfected into 293 cells using Lipofectamine Plus reagent (Invitrogen, Cat. No. 10964-013). TGF-β (2 ng/ml) was added in combination with different doses of PTH (1-34) (50 nM) or cPTH (39-84) (50 nM). […] Forty-two hours after transfection, the cells were lysed, and the luciferase signal was detected using the Dual Luciferase assay kit (Promega) according to the manufacturer's instructions.
# Luciferase values shown in the figures are representative of transfection experiments performed in triplicate in at least three independent experiments. The relative increased fold of the luciferase activity stimulated by TGF-β in each cell line was calculated.
# [8] = tested on: β-catenin; test: β-catenin stabilization, Western blot of UMR 106 cell fractions; assay type: cell-based; settings: UMR 106 cells; 5×10^−7 M PTH (1-84), 30 minutes
# [9] = biological target: T1, PTH1R/LRP5/6 complex (Rattus norvegicus, UniProt P25961); test: Co-immunoprecipitation of endogenous PTH1R with LRP5/6 in UMR-106 cells; assay type: cell-based; settings: 5×10^−7 M PTH (1-84)
# T1 construct: endogenous in cells; host or cells: UMR-106
# T1 sequence (P25961 27-591): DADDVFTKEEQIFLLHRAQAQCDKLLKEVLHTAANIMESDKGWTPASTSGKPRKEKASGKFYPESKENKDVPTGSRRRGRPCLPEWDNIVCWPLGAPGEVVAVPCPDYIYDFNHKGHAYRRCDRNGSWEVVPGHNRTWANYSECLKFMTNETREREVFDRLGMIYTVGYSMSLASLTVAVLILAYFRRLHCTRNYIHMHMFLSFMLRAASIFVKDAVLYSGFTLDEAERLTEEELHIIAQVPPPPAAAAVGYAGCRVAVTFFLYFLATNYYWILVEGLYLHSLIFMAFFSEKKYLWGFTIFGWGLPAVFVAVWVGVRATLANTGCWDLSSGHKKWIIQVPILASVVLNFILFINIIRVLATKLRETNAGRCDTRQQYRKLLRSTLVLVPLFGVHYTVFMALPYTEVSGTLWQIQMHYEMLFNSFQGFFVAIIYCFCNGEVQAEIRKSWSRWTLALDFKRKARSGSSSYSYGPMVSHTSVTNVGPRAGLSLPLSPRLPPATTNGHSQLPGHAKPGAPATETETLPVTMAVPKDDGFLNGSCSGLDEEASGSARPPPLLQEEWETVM
# Description: Endogenous LRP5 or LRP6 was coimmunoprecipitated with PTH1R in UMR 106 cells. UMR 106 cells were treated with 5×10^−7 M PTH (1-84) for indicated times. […] VSVG-tagged LRP6 was cotransfected into HEK 293 cells with HA-PTH1R, and the cells were treated with 5×10^−7 M PTH (1-84) for 1 hour. The LRP6-associated PTH ligand was determined by Western blotting of the anti-VSVG immunoprecipitates. […] VSVG-tagged LRP6, LRP6N, or LRP6C was cotransfected into HEK 293 cells with HA-PTH1R, and the cells were treated with or without 5×10^−7 M PTH (1-84) for 1 hour. The PTH1R-associated LRP6, LRP6N, or LRP6C was determined by Western blotting of the anti-HA immunoprecipitates, and the LRP6-, LRP6N- or LRP6C-associated PTH1R and PTH ligand was determined by Western blotting with an anti-VSVG antibody. […] The PTH1R-associated LRP6 was determined by Western blotting. […] The effect of LRP-6N on PTH-induced TCF4 activation was determined by luciferase assays.
# To determine if PTH (1-84) induced the formation of a complex of endogenous PTH1R with LRP5/6, an immunoprecipitation assay in osteoblastic UMR-106 cells was used. […] The cell lysates isolated from transfected cells treated with or without PTH were subjected to immunoprecipitation with anti-PTH1R antibodies, and the immunocomplex was detected by Western blotting with a monoclonal antibody that recognizes both LRP5 and LRP6. […]
# [10] = rats, 8 hours after single injection of PTH (1-34)
# [11] = seven-month-old rats, single dose injection of PTH (1-34)
substance,measurement,setting,value
"PTH (1-34): N-terminal fragment of PTH, amino acids 1-34",TCF luciferase activity,[1],significantly elevated
same,activation of TCF4-Luc reporter,[1],activated the TCF4-Luc reporter
same,Axin-LRP6 binding,[2],stimulated Axin-LRP6 binding
same,Axin protein levels,[3],further downregulated Axin protein levels
same,β-catenin positive osteoblasts at primary spongliosa subjacent to the epiphyseal growth plates,[4]; [10],99.76%
same,β-catenin positive osteoblasts at spongiosa subjacent to diaphyseal hematopoietic bone marrow,[4]; [10],89.91%
same,first signs of β-catenin expression in osteoblasts after PTH injection,[4]; [11],2 h
same,peak of β-catenin expression in osteoblasts after PTH injection,[4]; [11],8 h
same,β-catenin expression in osteoblasts at 24 hours,"[4]; seven-month-old rats, single dose injection of PTH (1-34), 24 hours",decreased
same,osteoblast proliferation (BrdU labeling),[5]; PTH continuous infusion,reduced proliferation
same,osteoblast proliferation (BrdU labeling),[5]; PTH daily injection,stimulated
same,mineralization in the trabecular and cortical bone matrix (von Kossa),"[5]; PTH intermittent injection, data not shown",increased
same,bone mineral density,"[5]; continuous infusion with osmotic pump for 28 days (500 ng/h), data not shown",decreased
same,bone mineral density,"[5]; daily injection for 28 days (100 ng/g b.w), data not shown",significantly increased
same,osteoblast numbers per square millimeter tissue area (N. Ob/T.Ar),"[5]; primary spongiosa of femur, data not shown",increased
same,percentage of β-catenin positive osteoblasts,[6]; PTH continuous infusion,23.54%
same,β-catenin in osteoblasts (immunostaining),"[6]; PTH continuous infusion, in comparison with control",reduced the level of β-catenin
same,β-catenin in osteoblasts (immunostaining),[6]; PTH intermittent injection,significantly increased β-catenin in osteoblasts
same,percentage of β-catenin positive osteoblasts,[6]; PTH intermittent injection,96.03%
same,"levels of β-catenin in osteocytes, osteoclasts, and bone marrow cells",[6]; data not shown,remained barely detectable
same,effect on TGF-β-induced transcription activity (SBE-luc),[7],inhibited TGF-β-induced transcription activity
"PTH (1-84): Full-length PTH or PTH ligand, 84 amino acids long, represented as 1-84",TCF luciferase activity,[1],significantly elevated
same,activation of TCF4-Luc reporter,[1],activates the Wnt signaling pathway
same,β-catenin levels in cytosolic and nuclear fractions,[8],stimulated the levels of β-catenin in both the cytoplasm and the nucleus
same,interaction between endogenous LRP5/6 and PTH1R,[9],induced the interaction between endogenous LRP5/6 and PTH1R in a time dependent manner
same,time of peak of PTH-induced LRP5/6-PTH1R interaction,[9],1 h
same,Axin-LRP6 binding,[2],induces LRP6/Axin binding
same,Axin-LRP6 binding,[2]; listed as PTH1-84,stimulated Axin-LRP6 binding
same,Axin protein levels,[3],further downregulated Axin protein levels
"cPTH (39-84): C-terminal fragment of PTH, amino acids 39-84 (APLAPRDAGSQRPRKKEDNVLVESHEKSLGEADKADVNVLTKAKSQ; Parathyroid hormone; UniProt P01270 70-115, looked up, fragment)",TCF luciferase activity,[1],only a marginal increase
same,effect on TGF-β-induced transcription activity (SBE-luc),[7],inhibited TGF-β-induced transcription activity
